Laboratory results taken from paper PMC11523249, “Expanding the antiprotozoal activity and the mechanism of action of n-butyl and iso-butyl ester of quinoxaline-1,4-di-N-oxide derivatives against Giardia lamblia, Trichomonas vaginalis, and Entamoeba histolytica. An in vitro and in silico approach” (Journal of Enzyme Inhibition and Medicinal Chemistry, 2024).
Like-named read-outs stand apart in the source and are kept apart here.

Columns and labels:
G. lamblia WB strain = experiment: In vitro susceptibility assay, G. lamblia trophozoites; assay type: cell-based, Giardia lamblia
Protocol: (§1) G. lamblia WB strain, T. vaginalis GT3 strain, and E. histolytica strain HM1-IMSS were used in all experiments, all parasitic strains were obtained from the Unidad de Investigación Médica en Enfermedades Infecciosas y Parasitarias, Hospital de Pediatría, Instituto Mexicano del Seguro Social. In vitro susceptibility assays to determine IC50 values were performed using a method previously described. For this, 4 × 10^4 G. lamblia; 6 × 10^3 E. histolytica, or 4 × 10^4 T. vaginalis trophozoites were incubated for 48 h at 37 °C with different concentrations of quinoxaline derivatives T-137 to T-170 (0.5 ng/mL to 10 μg/mL) using dimethyl sulfoxide (DMSO) (0.05%) as solvent. Metronidazole and albendazole were used as positive controls, and parasites in the medium without drugs containing DMSO (0.05%) were included as negative controls. At the end of the incubation period, trophozoites were washed and subcultured for another 48 h in a fresh medium without drugs. Then, trophozoites were counted with a haemocytometer and the IC50 was calculated by Probit analysis. Experiments were carried out in triplicate and repeated at least twice.

T. vaginalis GT3 strain = experiment: In vitro susceptibility assay, T. vaginalis trophozoites; assay type: cell-based, Trichomonas vaginalis
Protocol: as §1

[1] = tested on: E. histolytica strain HM1-IMSS; experiment: In vitro susceptibility assay, E. histolytica trophozoites; assay type: cell-based, Entamoeba histolytica
Protocol: as §1

[2] = tested on: murine macrophage cell line J774.2; experiment: Cytotoxic evaluation, MTT colorimetric assay; assay type: cell-based; settings: murine macrophages J774.2, read-out: Cytotoxicity (Macrophages J774.2) (CC50)
Protocol: The murine macrophage cell line J774.2 was maintained in culture flasks with RPMI 1640 medium supplemented with 10% FBS, and 100 U/mL antibiotic-antifungal mixture (Gibco). Cells were incubated at 37 °C with 5% CO2 and humidity. Murine macrophage cell line J774.2 is maintained at Laboratorio de Estudios Epidemiológicos, Clínicos, Diseños Experimentales e Investigación, Facultad de Ciencias Químicas, Universidad Autónoma “Benito Juárez” de Oaxaca. Macrophages were washed and viability was assessed by the MTT colorimetric assay. In a 96-well microplate, 1 × 10^5 macrophages were added per well and a dose-response assay was performed. Compounds were evaluated using serial dilutions to determine half-maximal cytotoxic concentration (CC50) values in triplicate considering 0.2% DMSO as negative control.

[3] = molecular target: T1, recombinant E. histolytica thioredoxin reductase (EhTRXR) (Entamoeba histolytica, UniProt C4LW95); experiment: Inhibition of EhTrxR DTNB reductase activity; assay type: biochemical; settings: for inhibition at 100 µM: pH 7, read-out: EhTrxR inhibitory effect (disulphide reductase activity)
T1 construct: His-tag (pET28a) (N); made in house; host or cells: E. coli BL21 (DE3)
T1 sequence (C4LW95 1-314): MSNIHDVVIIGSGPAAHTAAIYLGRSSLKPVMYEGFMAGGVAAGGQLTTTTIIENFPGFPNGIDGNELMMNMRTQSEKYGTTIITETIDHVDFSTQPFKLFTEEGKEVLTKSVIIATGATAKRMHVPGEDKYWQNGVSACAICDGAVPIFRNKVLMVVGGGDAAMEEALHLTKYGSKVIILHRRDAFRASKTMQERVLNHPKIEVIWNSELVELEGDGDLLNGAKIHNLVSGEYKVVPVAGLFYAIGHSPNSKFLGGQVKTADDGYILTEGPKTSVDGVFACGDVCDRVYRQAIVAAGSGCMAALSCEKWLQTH
Protocol: Recombinant E. histolytica thioredoxin reductase (EhTRXR) was expressed in E. coli BL21 (DE3) as His-tag (N-terminal) recombinant proteins using pET28a vector, and it was purified using IMAC as previously described. 5,5′-Dithiobis(2-nitrobenzoic acid) (DTNB) reductase activity was measured by monitoring the production of thionitrobenzoate at 405 nm in a reaction mixture comprising 50 mM potassium phosphate, pH 7.0, 2 mM EDTA, 300 µM NADPH, 5 mM DTNB, and 0.1 µM EhTRXR. Activity was calculated using the molar extinction coefficient at 405 nm of 13.6 mM^−1cm^− 1 and considering that 1 mol of NADPH yields 2 mol of thionitrobenzoate. The enzyme assays were performed at 30 °C, in a final volume of 50 μL, and using a Multiskan Ascent one-channel vertical light path filter photometer (Thermo Electron Co.). All results represent the arithmetic mean of at three independent experiments.

[4] = Giardia duodenalis, 48 h, read-out: G. lamblia (IC50 nM), trophozoites, 48 h at 37 °C, subcultured 48 h, Probit analysis
[5] = Trichomonas vaginalis, GT3, 48 h, read-out: T. vaginalis (IC50 nM), trophozoites, 48 h at 37 °C, subcultured 48 h, Probit analysis
[6] = Entamoeba histolytica, 48 h, read-out: E. histolytica (IC50 nM), trophozoites, 48 h at 37 °C, subcultured 48 h, Probit analysis
[7] = read-out: T. vaginalis (IC50 nM), trophozoites, 48 h at 37 °C, subcultured 48 h, Probit analysis
[8] = read-out: E. histolytica (IC50 nM), trophozoites, 48 h at 37 °C, subcultured 48 h, Probit analysis

| Structure (SMILES) | IC50 (G. lamblia WB strain; [4]) | IC50 (T. vaginalis GT3 strain; [5]) | IC50 [1, 6] | IC50 (T. vaginalis GT3 strain; [7]) | Selectivity index, E. histolytica versus macrophages ([1]; CC50 J774.2 / IC50 E. histolytica) | CC50 [2] | inhibition at 100 µM [3] | IC50 ([3]; DTNB reductase activity, 30 °C, pH 7.0) | EhTrxR inhibitory effect (disulphide reductase activity) ([3]; 100 µM compound, 5 mM DTNB, 300 µM NADPH, 30 °C, pH 7.0) | IC50 [1, 8] | IC50 (G. lamblia WB strain; read-out: G. lamblia (IC50 nM), trophozoites, 48 h at 37 °C, subcultured 48 h, Probit analysis) |
| --- | --- | --- | --- | --- | --- | --- | --- | --- | --- | --- | --- |
| CCCSc1ccc2nc(NC(=O)OC)[nH]c2c1 [Albendazole, reference compound] | 49 ± 5.65 nM | 1830 ± 86.7 nM | 44000 ± 2470 nM |  |  |  |  |  |  |  |  |
| CCCCOC(=O)c1ccc2c(c1)[n+]([O-])c(C(=O)c1ccccc1)c(C)[n+]2[O-] [Compound T-142] | 36.8 ± 0.66 nM | < 90 nM | 9.2 ± 1.32 nM | 81.5 ± 3.95 nM | 1918 fold | 17.7 ± 2.14 µM | 50 to 75% |  |  |  |  |
| COC(=O)c1c(C)[n+]([O-])c2ccc(C(=O)OCC(C)C)cc2[n+]1[O-] [Compound T-156] | 95.8 ± 4.49 nM | 248 ± 5.99 nM | 59.9 ± 5.99 nM |  |  |  |  |  |  |  |  |
| Cc1c(C(=O)c2ccccc2)[n+]([O-])c2cc(C(=O)OCC(C)C)ccc2[n+]1[O-] [Compound T-157] | 43.4 ± 1.32 nM | 153 ± 6.58 nM | 55.2 ± 5.26 nM |  |  | 34.2 ± 3.04 µM | 50 to 75% |  |  |  |  |
| CC(C)COC(=O)c1ccc2c(c1)[n+]([O-])c(C(=O)c1cccs1)c(C(F)(F)F)[n+]2[O-] [Compound T-164] | 107 ± 9.21 nM | 118 ± 10.5 nM | 27.3 ± 5.26 nM |  |  | 43.9 ± 1.89 µM |  |  |  |  |  |
| CCCCOC(=O)c1ccc2c(c1)[n+]([O-])c(C(=O)Nc1ccccc1)c(-c1ccccc1)[n+]2[O-] [Compound T-151] | 114 ± 4.38 nM | 153 ± 3.28 nM | 65.6 ± 2.19 nM |  |  | 44.1 ± 3.45 µM |  |  |  |  |  |
| CCCCOC(=O)c1ccc2c(c1)[n+]([O-])c(C(C)=O)c(C)[n+]2[O-] [Compound T-137] | 77 ± 9.43 nM | 258 ± 6.29 nM | 83.3 ± 1.57 nM |  |  | 58.4 ± 1.12 µM |  |  |  |  |  |
| CCCCOC(=O)c1ccc2c(c1)[n+]([O-])c(C(C)=O)c(C(F)(F)F)[n+]2[O-] [Compound T-145] | 40.3 ± 6.72 nM | 108 ± 16.1 nM | 57.8 ± 6.72 nM |  |  | > 200 µM | > 75% | 16 µM |  |  |  |
| Cc1ncc([N+](=O)[O-])n1CCO [Metronidazole, reference compound] | 1150 ± 40.9 nM | 210 ± 8.76 nM | 251 ± 5.48 nM |  |  |  |  |  |  |  |  |
| CC(C)COC(=O)c1ccc2c(c1)[n+]([O-])c(C(=O)c1ccco1)c(C(F)(F)F)[n+]2[O-] [Compound T-165] | 101 ± 2.36 nM | 125 ± 2.36 nM | 30.6 ± 2.36 nM |  |  | 81.8 ± 3.59 µM |  |  |  |  |  |
| CC(C)COC(=O)c1ccc2c(c1)[n+]([O-])c(C(=O)c1ccc3ccccc3c1)c(C(F)(F)F)[n+]2[O-] [Compound T-166] | 41.3 ± 2.07 nM | 82.6 ± 4.13 nM | 50.6 ± 5.17 nM |  |  |  |  |  |  |  |  |
| Cc1ccc(NC(=O)c2c(C)[n+]([O-])c3ccc(C(=O)OCC(C)C)cc3[n+]2[O-])c(C)c1 [Compound T-159] | 94.5 ± 3.54 nM | 105 ± 1.18 nM | 30.7 ± 5.91 nM |  |  | > 200 µM |  |  | low inhibition |  |  |
| CC(C)COC(=O)c1ccc2c(c1)[n+]([O-])c(C(=O)Nc1ccccc1)c(-c1ccccc1)[n+]2[O-] [Compound T-169] | 98.4 ± 2.19 nM | 116 ± 5.47 nM | 43.7 ± 2.19 nM |  |  | > 200 µM | 50 to 75% |  |  |  |  |
| CCCCOC(=O)c1ccc2c(c1)[n+]([O-])c(C(=O)OC)c(C)[n+]2[O-] [Compound T-138] | 48.5 ± 1.5 nM | 88 nM | ~40 nM | 88.3 ± 12 nM |  | 46.2 ± 3.26 µM |  |  |  | 40.4 ± 4.49 nM |  |
| CCCCOC(=O)c1ccc2c(c1)[n+]([O-])c(C(=O)OCc1ccccc1)c(C)[n+]2[O-] [Compound T-141] | 70.7 ± 1.22 nM | 166 ± 6.1 nM | ~40 nM |  |  | > 200 µM |  |  |  | 40.2 ± 2.44 nM |  |
| CCCCOC(=O)c1ccc2c(c1)[n+]([O-])c(C(=O)c1cccs1)c(C(F)(F)F)[n+]2[O-] [Compound T-149] | < 30 nM | 97.7 ± 9.09 nM | 18.2 ± 2.27 nM |  |  |  | 50 to 75% |  |  |  | 27.3 ± 2.27 nM |
| Cc1c(C(=O)Nc2ccccc2)[n+]([O-])c2cc(C(=O)OCC(C)C)ccc2[n+]1[O-] [Compound T-158] | 62 ± 1.27 nM | 164 ± 10.1 nM | 38 ± 2.53 nM |  |  | > 200 µM |  |  |  |  |  |
| CCCCOC(=O)c1ccc2c(c1)[n+]([O-])c(C(=O)c1ccc3ccccc3c1)c(C(F)(F)F)[n+]2[O-] [Compound T-150] | 51.6 ± 2.27 nM | 124 ± 2.27 nM | 36.1 ± 1.14 nM |  |  | > 200 µM |  |  |  |  |  |
| CCCCOC(=O)c1ccc2c(c1)[n+]([O-])c(C(=O)c1ccccc1)c(C(F)(F)F)[n+]2[O-] [Compound T-148] | 39.2 ± 3.46 nM | < 90 nM | 16.1 ± 3.46 nM | 82.9 ± 8.06 nM |  | 48.4 ± 1.65 µM | 50 to 75% |  |  |  |  |
| CC(=O)c1c(C)[n+]([O-])c2ccc(C(=O)OCC(C)C)cc2[n+]1[O-] [Compound T-155] |  | 192 ± 6.29 nM | 58.2 ± 1.57 nM |  |  | 87.22 ± 0.213 µM | 50 to 75% |  |  |  |  |
| CC(C)COC(=O)c1ccc2c(c1)[n+]([O-])c(C(=O)c1ccccc1)c(C(F)(F)F)[n+]2[O-] [Compound T-163] | 34.5 ± 2.3 nM | 100 ± 5.76 nM | 57.6 ± 2.3 nM |  |  |  | 50 to 75% |  |  |  |  |
| CCCCOC(=O)c1ccc2c(c1)[n+]([O-])c(C(=O)Nc1ccc(C)cc1C)c(C)[n+]2[O-] [Compound T-144] | 46.1 ± 1.18 nM | 118 ± 4.73 nM | 47.3 ± 4.73 nM |  |  |  |  |  |  |  |  |
| CCCCOC(=O)c1ccc2c(c1)[n+]([O-])c(C(=O)OCC)c(C)[n+]2[O-] [Compound T-139] | 47.4 ± 5.75 nM | ~100 nM | ~30 nM | 103 ± 2.87 nM |  | > 200 µM |  |  |  | 34.5 ± 7.18 nM |  |
| CCCCOC(=O)c1ccc2c(c1)[n+]([O-])c(C(=O)OC(C)(C)C)c(C)[n+]2[O-] [Compound T-140] | 49.2 ± 2.66 nM | ~100 nM | ~30 nM | 101 ± 3.99 nM |  | > 200 µM | 50 to 75% |  |  | 29.2 ± 2.66 nM |  |
